Measured values published in PubChem BioAssay (NCI).
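96-well plates; 48 h exposure; 5 concentrations. Endpoints by linear interpolation between flanking doses. Not reached: highest tested concentration assigned. At the TGI there is no net growth.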

Key:
Test in all cases: NCI tumour cell line growth inhibition, 48 h
SK-MEL-2 melanoma = tested on: SK-MEL-2 melanoma
M14 melanoma = tested on: M14 melanoma
SF-295 CNS = tested on: SF-295 CNS
OVCAR-5 ovarian = tested on: OVCAR-5 ovarian
K-562 leukemia = tested on: K-562 leukemia
HS 578T breast = tested on: HS 578T breast
HCT-15 colon = tested on: HCT-15 colon
OVCAR-8 ovarian = tested on: OVCAR-8 ovarian
MOLT-4 leukemia = tested on: MOLT-4 leukemia
MALME-3M melanoma = tested on: MALME-3M melanoma
SK-MEL-5 melanoma = tested on: SK-MEL-5 melanoma
SNB-78 CNS = tested on: SNB-78 CNS
UACC-62 melanoma = tested on: UACC-62 melanoma
NCI-H522 lung = tested on: NCI-H522 lung
RPMI-8226 leukemia = tested on: RPMI-8226 leukemia
SNB-19 CNS = tested on: SNB-19 CNS
CCRF-CEM leukemia = tested on: CCRF-CEM leukemia
NCI/ADR-RES ovarian = tested on: NCI/ADR-RES ovarian
NCI-H23 lung = tested on: NCI-H23 lung
NCI-H460 lung = tested on: NCI-H460 lung
NCI-H226 lung = tested on: NCI-H226 lung
BT-549 breast = tested on: BT-549 breast
COLO 205 colon = tested on: COLO 205 colon
HOP-18 NSCLC = tested on: HOP-18 NSCLC
HCC-2998 colon = tested on: HCC-2998 colon
SN12K1 renal = tested on: SN12K1 renal
CAKI-1 renal = tested on: CAKI-1 renal
MCF7 breast = tested on: MCF7 breast
UACC-257 melanoma = tested on: UACC-257 melanoma
T-47D breast = tested on: T-47D breast
HOP-62 NSCLC = tested on: HOP-62 NSCLC
DMS 114 small cell lung = tested on: DMS 114 small cell lung
OVCAR-4 ovarian = tested on: OVCAR-4 ovarian
XF 498 CNS = tested on: XF 498 CNS
UO-31 renal = tested on: UO-31 renal
DMS 273 small cell lung = tested on: DMS 273 small cell lung
OVCAR-3 ovarian = tested on: OVCAR-3 ovarian
M19-MEL melanoma = tested on: M19-MEL melanoma
MDA-MB-231 breast = tested on: MDA-MB-231 breast
SK-MEL-28 melanoma = tested on: SK-MEL-28 melanoma
TK-10 renal = tested on: TK-10 renal
A549 NSCLC = tested on: A549 NSCLC
U251 CNS = tested on: U251 CNS
PC-3 prostate = tested on: PC-3 prostate
HOP-92 NSCLC = tested on: HOP-92 NSCLC
KM12 colon = tested on: KM12 colon
RXF 393 renal = tested on: RXF 393 renal
P388 leukemia = tested on: P388 leukemia
HCT-116 colon = tested on: HCT-116 colon
MDA-N = tested on: MDA-N
SNB-75 CNS = tested on: SNB-75 CNS
IGROV1 ovarian = tested on: IGROV1 ovarian
LOX IMVI melanoma = tested on: LOX IMVI melanoma
DU-145 prostate = tested on: DU-145 prostate
MDA-MB-435 = tested on: MDA-MB-435
P388/ADR leukemia = tested on: P388/ADR leukemia
SF-539 CNS = tested on: SF-539 CNS
ACHN renal = tested on: ACHN renal
SW-620 colon = tested on: SW-620 colon
A498 renal = tested on: A498 renal
HL-60(TB) leukemia = tested on: HL-60(TB) leukemia
EKVX NSCLC = tested on: EKVX NSCLC
SN12C renal = tested on: SN12C renal
786-0 renal = tested on: 786-0 renal
KM20L2 colon = tested on: KM20L2 colon
DLD-1 colon = tested on: DLD-1 colon
SK-OV-3 ovarian = tested on: SK-OV-3 ovarian
HT29 colon = tested on: HT29 colon
SR leukemia = tested on: SR leukemia
SF-268 CNS = tested on: SF-268 CNS

**Q.** What does the source list for `CNC=O`?
**A.** TGI (SK-MEL-2 melanoma): > 10 mM; TGI (M14 melanoma): > 10 mM; TGI (SF-295 CNS): > 10 mM; TGI (OVCAR-5 ovarian): > 10 mM; TGI (K-562 leukemia): > 10 mM; TGI (HS 578T breast): > 10 mM; TGI (HCT-15 colon): > 10 mM; TGI (OVCAR-8 ovarian): > 10 mM; TGI (MOLT-4 leukemia): > 10 mM; TGI (MALME-3M melanoma): > 10 mM; TGI (SK-MEL-5 melanoma): > 10 mM; TGI (SNB-78 CNS): > 10 mM; TGI (UACC-62 melanoma): > 9.81 mM; TGI (NCI-H522 lung): > 10 mM; TGI (RPMI-8226 leukemia): > 10 mM; TGI (SNB-19 CNS): > 10 mM; TGI (CCRF-CEM leukemia): > 10 mM; TGI (NCI/ADR-RES ovarian): > 10 mM; TGI (NCI-H23 lung): > 10 mM; TGI (NCI-H460 lung): > 10 mM; TGI (NCI-H226 lung): > 10 mM; TGI (BT-549 breast): > 10 mM; TGI (COLO 205 colon): > 10 mM; TGI (HOP-18 NSCLC): > 10 mM; TGI (HCC-2998 colon): < 3.98 mM; TGI (SN12K1 renal): > 10 mM; TGI (CAKI-1 renal): > 10 mM; TGI (MCF7 breast): > 10 mM; TGI (UACC-257 melanoma): > 10 mM; TGI (T-47D breast): > 10 mM; TGI (HOP-62 NSCLC): < 3.98 mM; TGI (DMS 114 small cell lung): > 10 mM; TGI (OVCAR-4 ovarian): > 10 mM; TGI (XF 498 CNS): > 10 mM; TGI (UO-31 renal): > 10 mM; TGI (DMS 273 small cell lung): > 10 mM; TGI (OVCAR-3 ovarian): > 10 mM; TGI (M19-MEL melanoma): > 10 mM; TGI (MDA-MB-231 breast): > 10 mM; TGI (SK-MEL-28 melanoma): > 10 mM; TGI (TK-10 renal): > 10 mM; TGI (A549 NSCLC): > 10 mM; TGI (U251 CNS): > 10 mM; TGI (PC-3 prostate): > 10 mM; TGI (HOP-92 NSCLC): > 10 mM; TGI (KM12 colon): > 10 mM; TGI (RXF 393 renal): > 10 mM; TGI (P388 leukemia): > 5.62 mM; TGI (HCT-116 colon): > 10 mM; TGI (MDA-N): > 10 mM; TGI (SNB-75 CNS): > 10 mM; TGI (IGROV1 ovarian): > 10 mM; TGI (LOX IMVI melanoma): > 10 mM; TGI (DU-145 prostate): > 10 mM; TGI (MDA-MB-435): > 10 mM; TGI (P388/ADR leukemia): > 10 mM; TGI (SF-539 CNS): > 10 mM; TGI (ACHN renal): > 10 mM; TGI (SW-620 colon): > 10 mM; TGI (A498 renal): > 10 mM; TGI (HL-60(TB) leukemia): > 10 mM; TGI (EKVX NSCLC): > 10 mM; TGI (SN12C renal): > 7.74 mM; TGI (786-0 renal): > 10 mM; TGI (KM20L2 colon): > 10 mM; TGI (DLD-1 colon): > 10 mM; TGI (SK-OV-3 ovarian): < 3.98 mM; TGI (HT29 colon): > 10 mM; TGI (SR leukemia): > 10 mM; TGI (SF-268 CNS): > 10 mM
